Data from patent US20240139211A1, “METHODS AND COMPOSITIONS FOR TREATING AMYOTROPHIC LATERAL SCLEROSIS” (Amylyx Pharmaceuticals, Inc., priority 2022, published 2024).
Several values for one entry are separate records, joined by “and”; a condition that tells them apart may be missing. Equal entries are not always repeated.

Key:
hrCYP3A4 = hrCYP3A4 (Homo sapiens, UniProt P08684); assay: CYP reaction phenotyping with hrCYP3A4 (% remaining); assay type: in vitro ADME; conditions: for % Remaining of TA: hrCYP3A4 20 pmol CYP/mL, 5 μM TA, PB and TUDCA co-incubated
P-gp and BCRP = P-gp and BCRP substrate assessment in C2BBe1 monolayers
Protocol: The P-gp and BCRP substrate assessment was conducted in C2BBe1 cell monolayers. […] LY was co-dosed with each dosing solution at a nominal concentration of 200 μM.
The cell culture medium was aspirated, and the cell monolayers were rinsed once with HBSSg_7.4. […] For receiver samples, aliquots (300 μL) were taken at pre-selected time points. […] For donor samples, aliquots (50 μL) were taken at pre-selected time points without replacement.

hrCYP2C9 = hrCYP2C9 (Homo sapiens, UniProt P11712); assay: CYP reaction phenotyping with hrCYP2C9 (% remaining); assay type: in vitro ADME; conditions: for % Remaining of TA: hrCYP2C9 20 pmol CYP/mL, 5 μM TA, PB and TUDCA co-incubated
hrCYP1A2 = target: T1, hrCYP1A2 (Homo sapiens, UniProt P05177); assay: CYP reaction phenotyping with hrCYP1A2 (% remaining); assay type: in vitro ADME; conditions: for % Remaining of TA: hrCYP1A2 20 pmol CYP/mL, 5 μM TA, PB and TUDCA co-incubated
T1 sequence (P05177 1-516): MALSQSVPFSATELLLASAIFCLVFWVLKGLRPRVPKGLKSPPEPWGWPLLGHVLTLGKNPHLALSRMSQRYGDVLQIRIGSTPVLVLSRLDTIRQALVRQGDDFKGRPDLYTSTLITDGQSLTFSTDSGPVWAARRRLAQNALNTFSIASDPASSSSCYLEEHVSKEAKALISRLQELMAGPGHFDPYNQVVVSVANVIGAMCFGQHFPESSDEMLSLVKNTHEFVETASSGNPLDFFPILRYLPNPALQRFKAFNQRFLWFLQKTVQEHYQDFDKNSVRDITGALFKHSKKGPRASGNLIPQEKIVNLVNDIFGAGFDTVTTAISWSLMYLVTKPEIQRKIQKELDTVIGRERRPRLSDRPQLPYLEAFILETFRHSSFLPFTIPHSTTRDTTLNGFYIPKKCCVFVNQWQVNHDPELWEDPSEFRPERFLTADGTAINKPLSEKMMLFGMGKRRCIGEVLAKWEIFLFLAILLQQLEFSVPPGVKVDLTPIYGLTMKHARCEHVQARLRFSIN

hrCYP2C8 = target: T2, hrCYP2C8 (Homo sapiens, UniProt P10632); assay: CYP reaction phenotyping with hrCYP2C8 (% remaining); assay type: in vitro ADME; conditions: for % Remaining of TA: hrCYP2C8 20 pmol CYP/mL, 5 μM TA, PB and TUDCA co-incubated
T2 sequence (P10632 1-490): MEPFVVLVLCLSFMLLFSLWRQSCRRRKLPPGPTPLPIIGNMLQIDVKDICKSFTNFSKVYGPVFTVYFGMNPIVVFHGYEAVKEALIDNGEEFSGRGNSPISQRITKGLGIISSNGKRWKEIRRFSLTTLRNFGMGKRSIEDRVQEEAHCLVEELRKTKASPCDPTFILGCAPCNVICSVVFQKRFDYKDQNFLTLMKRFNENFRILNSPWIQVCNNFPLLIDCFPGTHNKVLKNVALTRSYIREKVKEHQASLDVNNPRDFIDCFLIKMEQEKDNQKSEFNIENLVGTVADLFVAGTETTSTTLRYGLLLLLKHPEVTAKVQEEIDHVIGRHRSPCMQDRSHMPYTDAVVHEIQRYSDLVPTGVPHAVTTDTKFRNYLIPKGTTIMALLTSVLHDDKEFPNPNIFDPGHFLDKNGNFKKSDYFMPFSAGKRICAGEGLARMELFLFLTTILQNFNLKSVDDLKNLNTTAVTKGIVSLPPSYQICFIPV

OAT1 = target: T3, OAT1 (Homo sapiens, UniProt Q4U2R8); assay: in vitro
T3 sequence (Q4U2R8 1-563): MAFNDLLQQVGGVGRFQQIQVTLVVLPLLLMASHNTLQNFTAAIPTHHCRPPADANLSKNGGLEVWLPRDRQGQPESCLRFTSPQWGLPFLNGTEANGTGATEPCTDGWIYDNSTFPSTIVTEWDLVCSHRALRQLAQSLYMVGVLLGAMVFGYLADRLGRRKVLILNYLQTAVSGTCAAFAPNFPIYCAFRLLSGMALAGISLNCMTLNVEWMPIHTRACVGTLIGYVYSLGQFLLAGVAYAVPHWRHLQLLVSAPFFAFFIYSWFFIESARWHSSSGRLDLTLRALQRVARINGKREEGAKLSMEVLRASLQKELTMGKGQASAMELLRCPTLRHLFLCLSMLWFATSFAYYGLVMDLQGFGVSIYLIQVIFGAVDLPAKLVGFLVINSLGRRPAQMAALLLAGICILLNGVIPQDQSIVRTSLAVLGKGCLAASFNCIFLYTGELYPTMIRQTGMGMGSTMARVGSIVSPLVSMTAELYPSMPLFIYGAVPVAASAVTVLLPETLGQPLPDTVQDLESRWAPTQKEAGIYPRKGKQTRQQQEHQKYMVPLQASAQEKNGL

hrCYP2D6 = hrCYP2D6 (Homo sapiens, UniProt P10635); assay: CYP reaction phenotyping with hrCYP2D6 (% remaining); assay type: in vitro ADME; conditions: for % Remaining of TA: hrCYP2D6 20 pmol CYP/mL, 5 μM TA, PB and TUDCA co-incubated
[1] = target: CYPs in human liver microsomes (HLM) (Homo sapiens, UniProt P10635); assay: CYP reaction phenotyping in HLM with chemical inhibitors (% remaining); conditions: +NADPH +quinidine (CYP2D6)
[2] = target: CYPs in human liver microsomes (HLM) (Homo sapiens, UniProt P11712); assay: as above; conditions: +NADPH +sulfaphenazole (CYP2C9)
[3] = 1.62 μM TUDCA (Solution 3), C2BBe1 cells, average
[4] = 1.62 μM TUDCA (Solution 3), C2BBe1 cells, single replicates
[5] = 16.2 μM TUDCA (Solution 2), C2BBe1 cells, average
[6] = 16.2 μM TUDCA (Solution 2), C2BBe1 cells, single replicates
[7] = […] TUDCA (Solution 1), C2BBe1 cells, average
[8] = […] TUDCA (Solution 4), C2BBe1 cells, average

Sequence of CYPs in human liver microsomes (HLM) (Homo sapiens, UniProt P11712) (P11712 whole entry): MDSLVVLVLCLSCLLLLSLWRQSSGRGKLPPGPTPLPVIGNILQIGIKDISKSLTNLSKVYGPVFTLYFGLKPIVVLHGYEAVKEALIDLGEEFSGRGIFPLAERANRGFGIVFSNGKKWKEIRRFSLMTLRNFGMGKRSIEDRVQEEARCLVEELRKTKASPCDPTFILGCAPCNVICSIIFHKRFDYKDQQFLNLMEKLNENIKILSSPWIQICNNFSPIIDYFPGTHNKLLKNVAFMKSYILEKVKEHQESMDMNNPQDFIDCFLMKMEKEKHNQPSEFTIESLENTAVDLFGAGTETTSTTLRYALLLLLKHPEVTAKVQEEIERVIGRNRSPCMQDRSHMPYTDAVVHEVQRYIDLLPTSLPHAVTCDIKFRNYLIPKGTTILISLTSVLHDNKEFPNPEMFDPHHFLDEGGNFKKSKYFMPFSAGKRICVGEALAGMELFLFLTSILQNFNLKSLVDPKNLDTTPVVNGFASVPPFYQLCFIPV
Sequence of hrCYP2C9 (P11712 whole entry): as above
Sequence of CYPs in human liver microsomes (HLM) (Homo sapiens, UniProt P10635) (P10635 whole entry): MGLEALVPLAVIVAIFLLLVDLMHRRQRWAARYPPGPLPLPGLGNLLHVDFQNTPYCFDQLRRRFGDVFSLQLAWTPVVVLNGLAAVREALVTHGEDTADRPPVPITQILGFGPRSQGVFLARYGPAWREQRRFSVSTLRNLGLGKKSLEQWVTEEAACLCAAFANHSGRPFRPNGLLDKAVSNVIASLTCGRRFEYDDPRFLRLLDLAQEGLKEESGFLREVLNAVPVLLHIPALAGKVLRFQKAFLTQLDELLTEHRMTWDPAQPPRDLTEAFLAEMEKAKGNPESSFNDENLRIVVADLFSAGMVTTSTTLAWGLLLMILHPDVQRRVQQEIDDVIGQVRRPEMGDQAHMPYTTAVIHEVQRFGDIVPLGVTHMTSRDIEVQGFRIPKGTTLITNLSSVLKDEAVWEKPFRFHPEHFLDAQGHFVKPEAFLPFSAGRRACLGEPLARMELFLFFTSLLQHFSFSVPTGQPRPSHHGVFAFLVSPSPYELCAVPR
Sequence of hrCYP2D6 (P10635 whole entry): as above
Sequence of hrCYP3A4 (P08684 whole entry): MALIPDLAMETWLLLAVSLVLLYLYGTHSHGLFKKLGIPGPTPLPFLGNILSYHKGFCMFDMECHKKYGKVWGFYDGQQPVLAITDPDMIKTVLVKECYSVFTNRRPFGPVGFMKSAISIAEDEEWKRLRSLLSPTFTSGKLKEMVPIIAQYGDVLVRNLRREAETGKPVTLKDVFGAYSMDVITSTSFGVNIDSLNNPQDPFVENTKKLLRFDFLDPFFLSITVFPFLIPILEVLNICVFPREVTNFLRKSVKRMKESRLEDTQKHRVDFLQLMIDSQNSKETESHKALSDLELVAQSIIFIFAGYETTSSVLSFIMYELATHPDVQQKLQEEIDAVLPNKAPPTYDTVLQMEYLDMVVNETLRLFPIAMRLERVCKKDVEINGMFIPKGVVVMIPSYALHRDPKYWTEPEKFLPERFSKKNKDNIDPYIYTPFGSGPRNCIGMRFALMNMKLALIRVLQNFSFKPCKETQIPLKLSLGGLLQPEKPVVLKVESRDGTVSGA

O=C(O)CCCc1ccccc1 [PB, sodium phenylbutyrate]
% remaining after 60 minutes (hrCYP3A4; human, 1 h, 5 µM, pH 7.4): greater than 90%
P-gp or BCRP substrate (P-gp and BCRP; Caco-2): neither TUDCA nor PB is P-gp or BCRP substrate
% remaining after 60 minutes (hrCYP2C9; human, 1 h, 5 µM, pH 7.4): greater than 90%
% remaining after 60 minutes (hrCYP1A2; human, 1 h, 5 µM, pH 7.4): greater than 90%
% remaining after 60 minutes (hrCYP2C8; human, 1 h, 5 µM, pH 7.4): greater than 90%
potency estimated from few doses (OAT1): < 25 µM
% remaining after 60 minutes (hrCYP2D6; human, 1 h, 5 µM, pH 7.4): greater than 90%
% remaining of TA in HLM ([1]; 20 min): 97.5%
% remaining of TA in HLM ([1]; 60 min): 98.8%
% remaining of TA in HLM ([2]; 5 min): 103%
% remaining of TA in HLM ([2]; 20 min): 98.5%
% remaining of TA in HLM ([2]; 30 min): 99.6%
% remaining of TA in HLM ([2]; 60 min): 97.6%

O=C(O)Cc1ccccc1 [Phenylacetic acid, phenylacetic acid]
potency estimated from few doses (OAT1): < 750 µM

tauroursodeoxycholic acid [TUDCA]
% Remaining of TA (hrCYP3A4; 0 min): 100%
% Remaining of TA (hrCYP3A4; 5 min): 97.1%
% Remaining of TA (hrCYP3A4; 10 min): 92.1%
% Remaining of TA (hrCYP3A4; 20 min): 91.4%
% Remaining of TA (hrCYP3A4; 30 min): 90.9%
% Remaining of TA (hrCYP3A4; 60 min): 91.1%
Papp AP-to-BL (P-gp and BCRP; [3]): 8.32 10^−6 cm/s
Papp BL-to-AP (P-gp and BCRP; [3]): 1.91 10^−6 cm/s
Papp AP-to-BL (P-gp and BCRP; [4]): 9.59 10^−6 cm/s and 7.25 10^−6 cm/s and 8.12 10^−6 cm/s
Papp BL-to-AP (P-gp and BCRP; [4]): 1.75 10^−6 cm/s and 1.84 10^−6 cm/s
Papp AP-to-BL (P-gp and BCRP; [5]): 2.00 10^−6 cm/s
Papp BL-to-AP (P-gp and BCRP; [5]): 0.610 10^−6 cm/s
Papp AP-to-BL (P-gp and BCRP; [6]): 1.19 10^−6 cm/s and 2.71 10^−6 cm/s and 2.08 10^−6 cm/s
Papp BL-to-AP (P-gp and BCRP; [6]): 0.553 10^−6 cm/s and 0.714 10^−6 cm/s and 0.561 10^−6 cm/s
Papp BL-to-AP (P-gp and BCRP; Caco-2): 2.15 10^−6 cm/s
Papp AP-to-BL (P-gp and BCRP; [7]): 5.92 10^−6 cm/s
Papp BL-to-AP (P-gp and BCRP; [7]): 3.00 10^−6 cm/s
Papp AP-to-BL (P-gp and BCRP; [8]): 7.11 10^−6 cm/s
Papp BL-to-AP (P-gp and BCRP; [8]): 2.14 10^−6 cm/s
% Remaining of TA (hrCYP2C9; 0 min): 100%
% Remaining of TA (hrCYP2C9; 5 min): 96.0%
% Remaining of TA (hrCYP2C9; 10 min): 98.8%
% Remaining of TA (hrCYP2C9; 20 min): 98.5%
% Remaining of TA (hrCYP2C9; 30 min): 97.8%
% Remaining of TA (hrCYP2C9; 60 min): 90.3%
% Remaining of TA (hrCYP1A2; 0 min): 100%
% Remaining of TA (hrCYP1A2; 5 min): 98.0%
% Remaining of TA (hrCYP1A2; 10 min): 101%
% Remaining of TA (hrCYP1A2; 20 min): 99.9%
% Remaining of TA (hrCYP1A2; 30 min): 103%
% Remaining of TA (hrCYP1A2; 60 min): 90.5%
% Remaining of TA (hrCYP2C8; 0 min): 100%
% Remaining of TA (hrCYP2C8; 5 min): 97.1%
% Remaining of TA (hrCYP2C8; 10 min): 99.3%
% Remaining of TA (hrCYP2C8; 20 min): 101%
% Remaining of TA (hrCYP2C8; 30 min): 101%
% Remaining of TA (hrCYP2C8; 60 min): 99.8%
% Remaining of TA (hrCYP2D6; 0 min): 100%
% Remaining of TA (hrCYP2D6; 5 min): 98.4%
% Remaining of TA (hrCYP2D6; 10 min): 97.8%
% Remaining of TA (hrCYP2D6; 20 min): 97.0%
% Remaining of TA (hrCYP2D6; 30 min): 99.2%
% Remaining of TA (hrCYP2D6; 60 min): 98.6%
% remaining of TA in HLM ([1]; 10 min): 110%
% remaining of TA in HLM ([1]; 20 min): 99.7%
% remaining of TA in HLM ([1]; 60 min): 87.2%
% remaining of TA in HLM ([2]; 10 min): 96.9%
% remaining of TA in HLM ([2]; 20 min): 92.8%
% remaining of TA in HLM ([2]; 30 min): 95.0%
% remaining of TA in HLM ([2]; 60 min): 95.3%
